Reference: patent publication US12077503B2, “Substituted cyclic amides and their use as herbicides” (FMC CORPORATION, priority 2015, dated 2024)

Experiments:
Assay type in all cases: in vivo
[1] = tested on: Galium (catchweed bedstraw, Galium aparine); experiment: Test A postemergence; conditions: postemergence; for Galium plant response rating: 125 g ai/ha, visual injury rating on 0 to 100 scale (0 no effect, 100 complete control), approx. 10 d; for Plant response rating, Galium: 500 g ai/ha, 0 to 100 scale, 0 no effect, 100 complete control
Procedure, shortened: (§1)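 Seeded soil received test chemicals as a preemergence directed spray, and seedlings at one to two leaves, 2–10 cm tall, received them postemergence, in a non-phytotoxic, surfactant-containing solvent mixture. Pots were held in a greenhouse for approximately 10 d, then rated for injury from 0, no effect, to 100, complete control.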

[2] = tested on: barnyardgrass (Echinochloa crus-galli); experiment: Test A postemergence
Procedure, shortened: as §1

[3] = tested on: ryegrass, Italian (Italian ryegrass, Lolium multiflorum); experiment: Test A postemergence; conditions: postemergence; for Ryegrass, Italian plant response rating: 125 g ai/ha, visual injury rating on 0 to 100 scale (0 no effect, 100 complete control), approx. 10 d; for Plant response rating, Ryegrass, Italian: 500 g ai/ha, 0 to 100 scale, 0 no effect, 100 complete control
Procedure, shortened: as §1

corn (Zea mays) = experiment: Test A postemergence; conditions: postemergence; for Corn plant response rating: 125 g ai/ha, visual injury rating on 0 to 100 scale (0 no effect, 100 complete control), approx. 10 d; for Plant response rating, Corn: 500 g ai/ha, 0 to 100 scale, 0 no effect, 100 complete control
Procedure, shortened: as §1

[4] = tested on: ragweed (common ragweed, Ambrosia elatior); experiment: Test A postemergence; conditions: postemergence; for Ragweed plant response rating: 125 g ai/ha, visual injury rating on 0 to 100 scale (0 no effect, 100 complete control), approx. 10 d; for Plant response rating, Ragweed: 500 g ai/ha, 0 to 100 scale, 0 no effect, 100 complete control
Procedure, shortened: as §1

[5] = tested on: wheat (Triticum aestivum); experiment: Test A postemergence; conditions: postemergence; for Wheat plant response rating: 125 g ai/ha, visual injury rating on 0 to 100 scale (0 no effect, 100 complete control), approx. 10 d; for Plant response rating, Wheat: 500 g ai/ha, 0 to 100 scale, 0 no effect, 100 complete control
Procedure, shortened: as §1

Kochia (Kochia scoparia) [6] = experiment: Test A postemergence; conditions: postemergence; for Kochia plant response rating: 125 g ai/ha, visual injury rating on 0 to 100 scale (0 no effect, 100 complete control), approx. 10 d; for Plant response rating, Kochia: 500 g ai/ha, 0 to 100 scale, 0 no effect, 100 complete control
Procedure, shortened: as §1

[7] = tested on: giant foxtail (Setaria faberii); experiment: Test A postemergence; conditions: postemergence; for Foxtail, Giant plant response rating: 125 g ai/ha, visual injury rating on 0 to 100 scale (0 no effect, 100 complete control), approx. 10 d; for Plant response rating, Foxtail, Giant: 500 g ai/ha, 0 to 100 scale, 0 no effect, 100 complete control
Procedure, shortened: as §1

[8] = tested on: blackgrass (Alopecurus myosuroides); experiment: Test A postemergence
Procedure, shortened: as §1

[9] = tested on: pigweed (Amaranthus retroflexus); experiment: Test A postemergence; conditions: postemergence; for Pigweed plant response rating: 125 g ai/ha, visual injury rating on 0 to 100 scale (0 no effect, 100 complete control), approx. 10 d; for Plant response rating, Pigweed: 500 g ai/ha, 0 to 100 scale, 0 no effect, 100 complete control
Procedure, shortened: as §1

[10] = tested on: barnyardgrass (Echinochloa crus-galli); experiment: Test A preemergence; conditions: for Plant response rating, Barnyardgrass: 125 g ai/ha, preemergence, 0 to 100 scale (0 no effect, 100 complete control)
Procedure, shortened: as §1

[11] = tested on: ryegrass, Italian (Italian ryegrass, Lolium multiflorum); experiment: Test A preemergence; conditions: for Plant response rating, Ryegrass, Italian: 125 g ai/ha, preemergence, 0 to 100 scale (0 no effect, 100 complete control)
Procedure, shortened: as §1

[12] = tested on: ragweed (common ragweed, Ambrosia elatior); experiment: Test A preemergence; conditions: for Plant response rating, Ragweed: 125 g ai/ha, preemergence, 0 to 100 scale (0 no effect, 100 complete control)
Procedure, shortened: as §1

Kochia (Kochia scoparia) [13] = experiment: Test A preemergence; conditions: for Plant response rating, Kochia: 125 g ai/ha, preemergence, 0 to 100 scale (0 no effect, 100 complete control)
Procedure, shortened: as §1

[14] = tested on: giant foxtail (Setaria faberii); experiment: Test A preemergence; conditions: for Plant response rating, Foxtail, Giant: 125 g ai/ha, preemergence, 0 to 100 scale (0 no effect, 100 complete control)
Procedure, shortened: as §1

[15] = tested on: pigweed (Amaranthus retroflexus); experiment: Test A preemergence; conditions: for Plant response rating, Pigweed: 125 g ai/ha, preemergence, 0 to 100 scale (0 no effect, 100 complete control)
[16] = tested on: barnyardgrass (Echinochloa crus-galli); experiment: Test B flooded paddy test; conditions: Flood, 250 g ai/ha; 0 to 100 scale where 0 is no effect and 100 is complete control; 13 to 15 d
Procedure, shortened: (§2)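 Plants at 2-leaf stage flooded to 3 cm above soil, with compounds applied directly to paddy water and that depth maintained. Plants kept in greenhouse 13–15 d. Visual rating versus controls on a 0 (no effect) to 100 (complete control) scale.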

[17] = tested on: ducksalad (Heteranthera limosa); experiment: Test B flooded paddy test; conditions: Flood, 250 g ai/ha; 0 to 100 scale where 0 is no effect and 100 is complete control; 13 to 15 d
Procedure, shortened: as §2

rice (Oryra sativa) = experiment: Test B flooded paddy test; conditions: Flood, 250 g ai/ha; 0 to 100 scale where 0 is no effect and 100 is complete control; 13 to 15 d
Procedure, shortened: as §2

[18] = tested on: sedge, umbrella (small-flower umbrella sedge, Cyperus difformis); experiment: Test B flooded paddy test; conditions: Flood, 250 g ai/ha; 0 to 100 scale where 0 is no effect and 100 is complete control; 13 to 15 d
Procedure, shortened: as §2

[19] = tested on: johnsongrass (Sorghum halepense); experiment: Test C preemergence; conditions: scale 0 to 100, 0 no effect, 100 complete control
Text: Seeds of plant species selected from blackgrass (Alopecurus myosuroides), ryegrass, Italian (Italian ryegrass, Lolium multiflorum), wheat (winter wheat, Triticum aestivum), Galium (catchweed bedstraw, Galium aparine), corn (Zea mays), crabgrass, large (large crabgrass, Digitaria sanguinalis), foxtail, giant (giant foxtail, Setaria faberii), johnsongrass (Sorghum halepense), lambsquarters (Chenopodium album), morningglory (Ipomoea coccinea), nutsedge, yellow (yellow nutsedge, Cyperus esculentus), pigweed (Amaranthus retroflexus), ragweed (common ragweed, Ambrosia elatior), soybean (Glycine max), barnyardgrass (Echinochloa crus-galli), oilseed rape (Brassica napus), waterhemp (common waterhemp, Amaranthus rudis) and velvetleaf (Abutilon theophrasti) were planted into a blend of loam soil and sand and treated preemergence with test chemicals formulated in a non-phytotoxic solvent mixture which included a surfactant.
At the same time, plants selected from these crop and weed species and also Kochia (Kochia scoparia), oat, wild (wild oat, Avena fatua), and chickweed (common chickweed, Stellaria media) were planted in pots containing Sunshine Redi-Earth® planting medium comprising spaghnum peat moss, vermiculite, starter nutrients and dolomitic limestone and treated with postemergence applications of test chemicals formulated in the same manner. Plants ranged in height from 2 to 18 cm (1- to 4-leaf stage) for postemergence treatments. Treated plants and controls were maintained in a greenhouse for 13 to 15 d, after which time all species were compared to controls and visually evaluated. Plant response ratings, summarized in Table C, are based on a scale of 0 to 100 where 0 is no effect and 100 is complete control. A dash (-) response means no test result.

[20] = 500 g ai/ha, postemergence, 0 to 100 scale, 0 no effect, 100 complete control
[21] = Postemergence, 125 g ai/ha, visual injury, 0 to 100 scale (0 no effect, 100 complete control), approx. 10 d
[22] = Preemergence, 500 g ai/ha, 0 is no effect, 100 is complete control
[23] = 125 g ai/ha, postemergence, visual injury rating on 0 to 100 scale (0 no effect, 100 complete control), approx. 10 d
[24] = Preemergence, 500 g ai/ha, visual injury approx. 10 d

| Compound | Galium plant response rating [1] | Plant response rating, Galium [1] | Plant response rating, Barnyardgrass [2, 20] | Ryegrass, Italian plant response rating [3] | Plant response rating, Ryegrass, Italian [3] | Corn plant response rating (corn (Zea mays)) | Plant response rating, Corn (corn (Zea mays)) | Ragweed plant response rating [4] | Plant response rating, Ragweed [4] | Wheat plant response rating [5] | Plant response rating, Wheat [5] | Kochia plant response rating (Kochia (Kochia scoparia) [6]) | Plant response rating, Kochia (Kochia (Kochia scoparia) [6]) | Foxtail, Giant plant response rating [7] | Plant response rating, Foxtail, Giant [7] | Plant response rating, Blackgrass [8, 20] | Pigweed plant response rating [9] | Plant response rating, Pigweed [9] | Plant response rating, Barnyardgrass [10] | Plant response rating, Ryegrass, Italian [11] | further results |
| --- | --- | --- | --- | --- | --- | --- | --- | --- | --- | --- | --- | --- | --- | --- | --- | --- | --- | --- | --- | --- | --- |
| CN1CC(c2cccc(OC(F)(F)C(F)F)c2)C(C(=O)Nc2ccc(F)cc2F)C1=O (stereo not shown) [Compound 393] | 70 | 70 | 90 | 40 | 70 | 80 | 80 | 0 | 0 | 20 | 70 | 60 | 60 | 90 | 90 | 70 | 50 | 70 | 90 | 20 | Plant response rating, Barnyardgrass [2, 21]: 80; Plant response rating, Blackgrass [8, 21]: 60; Barnyardgrass plant response rating (0 to 100 scale) [10, 22]: 90; Ryegrass, Italian plant response rating (0 to 100 scale) [11, 22]: 50; Plant response rating, Ragweed [12]: 0; Ragweed plant response rating (0 to 100 scale) [12, 22]: 70; Plant response rating, Kochia (Kochia (Kochia scoparia) [13]): 60; Kochia plant response rating (0 to 100 scale) (Kochia (Kochia scoparia) [13]; [22]): 50; Plant response rating, Foxtail, Giant [14]: 90; Foxtail, Giant plant response rating (0 to 100 scale) [14, 22]: 90; Plant response rating, Pigweed [15]: 50; Pigweed plant response rating (0 to 100 scale) [15, 22]: 70; Plant response rating, Barnyardgrass [16]: 65; Plant response rating, Ducksalad [17]: 90; Plant response rating, Rice (rice (Oryra sativa)): 0; Plant response rating, Sedge, Umbrella [18]: 0; Plant response rating, Johnsongrass ([19]; 31 g ai/ha): 70; Plant response rating, Johnsongrass ([19]; 62 g ai/ha): 80; Plant response rating, Johnsongrass ([19]; 125 g ai/ha): 85; Plant response rating, Johnsongrass ([19]; 250 g ai/ha): 85 |
| CN1CC(c2cccc(C(F)(F)F)c2)C(C)(C(=O)Nc2ccccc2F)C1=O (stereo not shown) [Compound 428] | 50 | 60 | 90 | 30 | 30 | 30 | 60 | 0 | 0 | 30 | 60 | 30 | 70 | 80 | 90 | 70 | 0 | 20 | 90 | 20 | Barnyardgrass plant response rating [2, 23]: 90; Blackgrass plant response rating [8, 23]: 40; Barnyardgrass plant response rating (0 to 100 scale, 0 is no effect, 100 is complete control) [10, 24]: 90; Ryegrass, Italian plant response rating (0 to 100 scale, 0 is no effect, 100 is complete control) [11, 24]: 30; Plant response rating, Ragweed [12]: 0; Ragweed plant response rating (0 to 100 scale, 0 is no effect, 100 is complete control) [12, 24]: 0; Plant response rating, Kochia (Kochia (Kochia scoparia) [13]): 50; Kochia plant response rating (0 to 100 scale, 0 is no effect, 100 is complete control) (Kochia (Kochia scoparia) [13]; [24]): 50; Plant response rating, Foxtail, Giant [14]: 90; Foxtail, Giant plant response rating (0 to 100 scale, 0 is no effect, 100 is complete control) [14, 24]: 90; Plant response rating, Pigweed [15]: 0; Pigweed plant response rating (0 to 100 scale, 0 is no effect, 100 is complete control) [15, 24]: 20; Plant response rating, Johnsongrass ([19]; 31 g ai/ha): 5; Plant response rating, Johnsongrass ([19]; 62 g ai/ha): 50; Plant response rating, Johnsongrass ([19]; 125 g ai/ha): 65; Plant response rating, Johnsongrass ([19]; 250 g ai/ha): 75 |
